Results as given in BigSolDB 2.1.

Oc1ccc(OCc2ccccc2)cc1
solubility (mole fraction)
Details | 283.15 K | 288.15 K | 293.15 K | 298.15 K | 303.15 K | 308.15 K | 313.15 K
in 1,4-dioxane | – | 0.0903 | 0.131 | 0.19 | 0.258 | 0.342 | 0.435
in acetonitrile | 0.036 | 0.0447 | 0.0546 | 0.0669 | 0.0821 | 0.101 | 0.125
in cyclohexane | 0.000542 | 0.000933 | 0.00156 | 0.00261 | 0.00396 | 0.0058 | 0.00802
in ethanol | 0.0319 | 0.0396 | 0.0484 | 0.0595 | 0.0735 | 0.0905 | 0.111
in ethyl acetate | 0.0773 | 0.129 | 0.201 | 0.293 | 0.399 | 0.519 | 0.632
in isopropanol | 0.0317 | 0.0383 | 0.0476 | 0.0585 | 0.0736 | 0.0921 | 0.116
in methanol | 0.0381 | 0.0476 | 0.0593 | 0.0739 | 0.0908 | 0.111 | 0.136
in n-butanol | 0.0227 | 0.0282 | 0.0346 | 0.0434 | 0.0543 | 0.0666 | 0.0835
in n-hexane | 0.000327 | 0.000453 | 0.000749 | 0.00108 | 0.00161 | 0.00226 | 0.00313
in n-octanol | 0.00719 | 0.0101 | 0.0136 | 0.0171 | 0.0224 | 0.0289 | 0.0355
in n-propanol | 0.0287 | 0.0352 | 0.0428 | 0.0521 | 0.0642 | 0.0794 | 0.0994
in water | 5e-06 | 7e-06 | 9e-06 | 1.3e-05 | 1.7e-05 | 2.3e-05 | 3e-05
